What was measured:
[1] = test system: T-Rex 293 cell line SC3 cells having increased expression of androgen receptor protein due to exposure to doxycycline; test: Cellular growth inhibition, T-Rex 293 SC3 cells with doxycycline (increased androgen receptor expression), CellTiter-Glo; type: cell-based; conditions: T-Rex 293 SC3 cells with 10 ng/mL doxycycline (increased androgen receptor expression), 72 hours, CellTiter-Glo 2.0
Protocol: (§1) The following types of cells were prepared for this experiment: (i) a T-Rex 293 cell line having increased expression of androgen receptor protein due to exposure to doxycycline and (ii) a T-Rex 293 cell line lacking increased expression of androgen receptor protein. Ability of the test compounds to inhibit proliferation of the foregoing cell types was evaluated according to the procedures set forth below.
(§2) The doxycycline-inducible androgen receptor protein expressing cell line was established using the following protocol: T-Rex 293 cells were purchased from Invitrogen (Cat #R71007) and transfected using Lipofectamine 2000 with the wild-type androgen receptor protein sequence cloned into the pcDNA4/TO vector. Transfected cells were selected using 400 μg/mL Zeocin (Invitrogen Cat #R25001). Following selection, single clones were raised and maintained in Dulbecco's Modified Eagle Medium (DMEM) supplemented with 10% w/w Tetracycline-free fetal bovine serum (FBS) and 250 μg/mL Zeocin. Clones were analyzed for expression of androgen receptor protein in the presence and absence of 10 ng/mL doxycycline (Sigma Cat #D9891), and a single doxycycline-inducible clone (hereinafter “SC3”) was selected for use in downstream assays.
(§3) The SC3 cells were seeded on poly-D-lysine coated, black clear-bottom 384-well plates at 2500/well, in 25 μL Phenol Red Free Dulbecco's Modified Eagle Medium (DMEM) supplemented with 10% w/w charcoal-dextran treated fetal bovine serum (FBS) and 1% w/w pen-strep, with or without 10 ng/mL doxycycline. Pen-Strep is a commercially available mixture of penicillin G and streptomycin, which is used in mammalian cell culture media to prevent bacterial contamination. Phenol Red Free Dulbecco's Modified Eagle Medium (DMEM) supplemented with 10% w/w charcoal-dextran treated fetal bovine serum (FBS) and 1% w/w pen-strep, with or without 10 ng/mL doxycycline is herein referred to as Treatment Medium. Following seeding of cells in the plates, the plates were spun at 300×g for 30 seconds, then equilibrated to room temperature for 30 minutes, and then deposited in a humidified tissue culture incubator maintained at 37° C. with 5% CO2.
(§4) At 24 hours after seeding of the cells, dilutions of test compound were prepared in DMSO and dissolved in Treatment Medium, to achieve a final DMSO concentration of 0.5% w/w, thereby providing the Test Compound Solution. A 25 μL aliquot of the Test Compound Solution was added to cells in the well plates. An equal volume of a solution containing DMSO and Treatment Medium was used as a negative control. Following treatment of cells with Test Compound Solution or said equal volume of a solution containing DMSO and Treatment Medium, the plates were spun at 300×g for 30 seconds, and then left in an incubator for 72 hours.
(§5) At the end of the treatment duration, cell viability was quantified with CellTiter-Glo 2.0 reagent (Promega Cat #G9243). For this purpose, plates were equilibrated to room temperature for 30 minutes, and then 25 μL of CellTiter-Glo 2.0 reagent was added to cells in the plate wells. Plates were then agitated on a shaker for two minutes at 500 rpm and subsequently incubated at room temperature for 10 minutes. Following incubation, the plates were spun at 3000×g for 30 seconds, then sealed with an optical adhesive cover, and luminescence readings were measured with an EnVision Plate Reader.
(§6) Data was normalized using zero luminescence for baseline. A four-parameter non-linear regression curve fit was applied to dose-response data in GraphPad Prism data analysis software to determine the half-maximal growth inhibitory concentration (GI50) for each test compound.

[2] = test system: T-Rex 293 cell line SC3 cells lacking increased expression of androgen receptor protein; test: Cellular growth inhibition, T-Rex 293 SC3 cells without doxycycline (no increased androgen receptor expression), CellTiter-Glo; type: cell-based; conditions: T-Rex 293 SC3 cells not exposed to doxycycline (no increased androgen receptor expression), 72 hours
Protocol: as §1, §2, §3, §4, §5, §6

[3] = test system: VCaP cells; test: Cellular growth inhibition assay for VCaP cells, CellTiter-Glo; type: cell-based, human; conditions: 72 hours
Protocol: VCaP cells were purchased from American Type Cell Culture (ATCC Cat #CRL2876) and then seeded on poly-D-lysine coated, black clear-bottom 384-well plates at 5000/well in 25 μL Dulbecco's Modified Eagle Medium (DMEM) supplemented with 10% w/w Fetal bovine serum (FBS) and 1% w/w Pen-Strep. Pen-Strep is a commercially available mixture of penicillin G and streptomycin, which is used in mammalian cell culture media to prevent bacterial contamination. Dulbecco's Modified Eagle Medium (DMEM) supplemented with 10% w/w fetal bovine serum (FBS) and 1% w/w Pen-Strep is herein referred to as Treatment Medium. Following seeding of cells in the plates, the plates were spun at 300×g for 30 seconds, then equilibrated to room temperature for 30 minutes, and then deposited in a humidified tissue culture incubator maintained at 37° C. with 5% CO2.
as §4, §5, §6

| Structure (SMILES) | GI50 [1] [nM] | GI50 [2] [nM] | GI50 [3] [nM] | GI50 ([3]; Homo sapiens) [nM] |
| --- | --- | --- | --- | --- |
| CCS(=O)(=O)Nc1ccc(Oc2ccc(OCCOC3CCN(c4ncc(C(=O)N[C@H]5C(C)(C)[C@H](Oc6ccc(C#N)c(Cl)c6)C5(C)C)cn4)CC3)cc2)c(-c2cn(C)c(=O)c3[nH]ccc23)c1 [Compound I-139] | < 500 | < 500 | < 500 |  |
| CCC(=O)Nc1ccc(Oc2cccc(OCCOC3CCN(c4ncc(C(=O)N[C@H]5C(C)(C)[C@H](Oc6ccc(C#N)c(Cl)c6)C5(C)C)cn4)CC3)c2)c(-c2cn(C)c(=O)c3[nH]ccc23)c1 [Compound I-59, N-((1r, 3r)-3-(3-chloro-4-cyanophenoxy)-2,2,4,4-tetramethylcyclobutyl)-2-(4-(2-(3-(2-(6-methyl-7-oxo-6,7-dihydro-1H-pyrrolo[2,3-c]pyridin-4-yl)-4-propionamidophenoxy)phenoxy)ethoxy)piperidin-1-yl)pyrimidine-5-carboxamide] | < 500 | > 3000 |  | > 3000 |
| CCS(=O)(=O)Nc1ccc(Oc2cccc(OCCOC3CCN(c4ccc(C(=O)N[C@H]5C(C)(C)[C@H](Oc6ccc(C#N)c(Cl)c6)C5(C)C)cn4)CC3)c2F)c(-c2cn(C)c(=O)c3[nH]ccc23)c1 [Compound I-188] | < 500 | < 500 |  | < 500 |
| Cn1cc(-c2cc(CS(C)(=O)=O)ccc2Oc2cccc(OCCOC3CCN(c4ncc(C(=O)N[C@H]5C(C)(C)[C@H](Oc6ccc(C#N)c(Cl)c6)C5(C)C)cn4)CC3)c2)c2cc[nH]c2c1=O [Compound I-53, N-((1r, 3r)-3-(3-chloro-4-cyanophenoxy)-2,2,4,4-tetramethylcyclobutyl)-2-(4-(2-(3-(2-(6-methyl-7-oxo-6,7-dihydro-1H-pyrrolo[2,3-c]pyridin-4-yl)-4-((methylsulfonyl)methyl)phenoxy)phenoxy)ethoxy)piperidin-1-yl)pyrimidine-5-carboxamide] | < 500 | < 500 |  | < 500 |
| CCS(=O)(=O)Cc1ccc(Oc2cccc(CCOC3CCN(c4ncc(C(=O)N[C@H]5C(C)(C)[C@H](Oc6ccc(C#N)c(Cl)c6)C5(C)C)cn4)CC3)c2)c(-c2cn(C)c(=O)c3[nH]ccc23)c1 [Compound I-159] | < 500 | < 500 | < 500 |  |
| CCS(=O)(=O)c1ccc(Oc2cccc(OCCOC3CCN(c4ncc(C(=O)N[C@H]5C(C)(C)[C@H](Oc6ccc(C#N)c(Cl)c6)C5(C)C)cn4)CC3)c2)c(-c2cn(C)c(=O)c3[nH]ccc23)c1 [Compound I-55, N-((1r, 3r)-3-(3-chloro-4-cyanophenoxy)-2,2,4,4-tetramethylcyclobutyl)-2-(4-(2-(3-(4-(ethylsulfonyl)-2-(6-methyl-7-oxo-6,7-dihydro-1H-pyrrolo[2,3-c]pyridin-4-yl)phenoxy)phenoxy)ethoxy)piperidin-1-yl)pyrimidine-5-carboxamide] | < 500 | < 500 |  | < 500 |
| Cn1cc(-c2cc(NS(=O)(=O)C3CC3)ccc2Oc2cccc(CCOC3CCN(c4ncc(C(=O)N[C@H]5C(C)(C)[C@H](Oc6ccc(C#N)c(Cl)c6)C5(C)C)cn4)CC3)c2F)c2cc[nH]c2c1=O [Compound I-136] | < 500 | < 500 | < 500 |  |
| CCS(=O)(=O)Nc1ccc(Oc2cccc(OCCN3CCN(c4ncc(C(=O)N[C@H]5C(C)(C)[C@H](Oc6ccc(C#N)c(Cl)c6)C5(C)C)cn4)CC3)c2)c(-c2cn(C)c(=O)c3[nH]ccc23)c1 [Compound I-77] | < 500 | < 500 |  | < 500 |
| CCS(=O)(=O)Nc1ccc(Oc2cccc(OC3CN(CC4CCN(c5ncc(C(=O)N[C@H]6C(C)(C)[C@H](Oc7ccc(C#N)c(Cl)c7)C6(C)C)cn5)CC4)C3)c2)c(-c2cn(C)c(=O)c3[nH]ccc23)c1 [Compound I-38] | < 500 | < 500 |  | < 500 |
| CCS(=O)(=O)Nc1ccc(Oc2cccc(CCCCCOC3CCN(c4ncc(C(=O)N[C@H]5C(C)(C)[C@H](Oc6ccc(C#N)c(Cl)c6)C5(C)C)cn4)CC3)c2)c(-c2cn(C)c(=O)c3[nH]ccc23)c1 [Compound I-22] | < 500 | < 500 |  | < 500 |
| CC(C)c1ccc(Oc2cccc(OCCC3CCN(c4ncc(C(=O)N[C@H]5C(C)(C)[C@H](Oc6ccc(C#N)c(Cl)c6)C5(C)C)cn4)CC3)c2F)c(-c2cn(C)c(=O)c3[nH]ccc23)c1 [Compound I-132] | > 3000 | > 3000 | > 3000 |  |
| CCS(=O)(=O)Nc1ccc(Oc2cccc(OCCOCCOCCN(C)c3ncc(C(=O)N[C@H]4C(C)(C)[C@H](Oc5ccc(C#N)c(Cl)c5)C4(C)C)cn3)c2)c(-c2cn(C)c(=O)c3[nH]ccc23)c1 [Compound I-2] | < 500 | 1500 to 3000 |  |  |
| CCS(=O)(=O)Cc1ccc(Oc2cccc(OCCOC3CCN(c4ccc(C(=O)N[C@H]5C(C)(C)[C@H](Oc6ccc(C#N)c(Cl)c6)C5(C)C)cn4)CC3)c2F)c(-c2cn(C)c(=O)c3[nH]ccc23)c1 [Compound I-166] | < 500 | < 500 |  | < 500 |
| Cn1cc(-c2cc(C(C)(C)O)ccc2Oc2ccc(N3CC4(CCN(c5ncc(C(=O)N[C@H]6C(C)(C)[C@H](Oc7ccc(C#N)c(Cl)c7)C6(C)C)cn5)CC4)C3)cc2)c2cc[nH]c2c1=O [Compound I-353] | < 500 | 1500 to 3000 | 1500 to 3000 |  |
| CCS(=O)(=O)Nc1ccc(Oc2cccc(OCCOC3CCN(c4ccc(C(=O)N[C@H]5C(C)(C)[C@H](Oc6ccc(C#N)c(Cl)c6)C5(C)C)nn4)CC3)c2F)c(-c2cn(C)c(=O)c3[nH]ccc23)c1 [Compound I-162] | < 500 | > 3000 |  | < 500 |
| CCS(=O)(=O)c1ccc(Oc2cccc(OCCOC3CCN(c4ccc(C(=O)N[C@H]5C(C)(C)[C@H](Oc6ccc(C#N)c(Cl)c6)C5(C)C)nn4)CC3)c2F)c(-c2cn(C)c(=O)c3[nH]ccc23)c1 [Compound I-169] | < 500 | < 500 |  | < 500 |
| CCS(=O)(=O)Nc1cc(F)c(Oc2cccc(OCCOC3CCN(c4ncc(C(=O)N[C@H]5C(C)(C)[C@H](Oc6ccc(C#N)c(Cl)c6)C5(C)C)cn4)CC3)c2)c(-c2cn(C)c(=O)c3[nH]ccc23)c1 [Compound I-161] | < 500 | > 3000 |  | < 500 |
| CCS(=O)(=O)Nc1ccc(Oc2cccc(CCCOC3CCN(c4ncc(C(=O)N[C@H]5C(C)(C)[C@H](Oc6ccc(C#N)c(Cl)c6)C5(C)C)cn4)CC3)c2F)c(-c2cn(C)c(=O)c3[nH]ccc23)c1 [Compound I-154] | < 500 | < 500 |  | < 500 |
| CCS(=O)(=O)Nc1ccc(Oc2ccc(CCCOC3CCN(c4ncc(C(=O)N[C@H]5C(C)(C)[C@H](Oc6ccc(C#N)c(Cl)c6)C5(C)C)cn4)CC3)cc2)c(-c2cn(C)c(=O)c3[nH]ccc23)c1 [Compound I-152] | < 500 | < 500 | < 500 |  |
| CCS(=O)(=O)Nc1ccc(Oc2cccc(OCCOCCOCCOCCOCCOCCOCCN(C)c3ncc(C(=O)N[C@H]4C(C)(C)[C@H](Oc5ccc(C#N)c(Cl)c5)C4(C)C)cn3)c2)c(-c2cn(C)c(=O)c3[nH]ccc23)c1 [Compound I-4] | < 500 | < 500 |  |  |
